{"source": "patent US20100168038A1", "about": "“USE OF COMPOUNDS IN COMBINATION WITH GAMMA-IRRADIATION FOR THE TREATMENT OF CANCER” (priority 2006, published 2010)", "key": {"Stability in serum": {"assay": "Stability in serum", "assay_type": "in vitro ADME"}, "EL-4 lymphoma cells": {"tested_on": "EL-4 lymphoma cells", "assay": "Tumor growth of EL-4 lymphoma in C57Bl/6 mice, compound with gamma-irradiation", "assay_type": "in vivo, mouse", "settings": "for tumor volume: single mouse; for tumor volume, mean: group mean", "source_text": "Tumor Growth Experiments. Tumor cells were washed in PBS and resuspended in a volume of 200 micro-l per inoculate. The cells were then inoculated into the right flank at 10^6 per mouse and growth of the tumor was monitored by measurement two times per week. The initiation of anti-tumor treatment of the mice was to some extent individualized according to when tumor growth started in each mouse. The mice were irradiated with 4 Gy prior to tumor inoculation in order to inhibit anti-tumor immune responses. The tumor volume was calculated as the mean volume in mice with tumors growth, according to (a1×a2×a3)/2 (the numbers ai denote tumor diameter, width and depth). The time of first palpation varied between different mice, although the general pattern of growth was similar in virtually all of the mice. In most diagrams a log-scale is used to better visualize the therapeutic effects against small tumors, i.e. the presence of complete rejections. For inhibition of TPPII in vivo we made intraperitoneal injections with 13.8 mg per kg of body weight (14 micro-l of a 50 mM solution/mouse) of the Subtilisin inhibitor Z-Gly-Leu-Ala-OH (Z-GLA-OH, Bachem, Weil am Rhein, Germany) twice per week, diluted into 200 micro-l PBS. All gamma-irradiations were full body exposures.\nTable 3 contains further in vivo data, showing tumor volume in mm^3, in groups of 7-8 mice, according to the EL-4 tumor model described above. 1.000.000 EL-4 lymphoma cells were inoculated subcutaneously at day 0. No palpable tumors were observed until day 22. At each treatment (twice weekly) mice with palpable tumors were given 400 Rads irradiation alone, or in combination with 14 micro-l 50 mM solution of Z-GLA-OH. Mice with no palpable tumors were not treated, i.e. in mice with rejected tumors, treatment was terminated and the mice were kept under observation.\nAll mice were 400 Rad (1 Gy=100 Rad) gamma-irradiated at day 0, a standard procedure to improve tumor acceptance. The compound was inoculated intraperitoneally, whereas tumors were always inoculated subcutaneously."}, "[1]": {"settings": "EL-4, irradiation + Z-GLA-OH, day 26"}, "[2]": {"settings": "EL-4, irradiation + Z-GLA-OH, day 30"}, "[3]": {"settings": "EL-4, irradiation + Z-GLA-OH, day 34"}, "[4]": {"settings": "EL-4, irradiation + Z-GLA-OH, day 37"}, "[5]": {"settings": "EL-4, irradiation + Z-GLA-OH, day 41"}, "[6]": {"settings": "EL-4, irradiation + Z-GLA-OH, day 44"}, "[7]": {"settings": "EL-4, irradiation + Z-GLA-OH, day 48"}, "[8]": {"settings": "EL-4, irradiation + Z-GLA-OH, day 55"}, "[9]": {"settings": "EL-4, irradiation + Z-GLA-OH, day 62"}, "[10]": {"settings": "EL-4, irradiation + Z-GLA-OH, day 65"}, "[11]": {"settings": "EL-4, irradiation + Z-GLA-OH, day 72"}, "[12]": {"settings": "EL-4, irradiation + Z-GLA-OH, day 78"}}, "note": "Where “and” joins values, the source holds several entries; their conditions need not be identical. Equal entries are not always repeated. Residues, ends and D or L forms follow the SMILES beside them.", "data": [{"smiles": "CC(C)C[C@H](NC(=O)CNC(=O)OCc1ccccc1)C(=O)N[C@@H](C)C(=O)O", "note": "[Z-GLA-OH, Z-Gly-Leu-Ala-OH] (HELM PEPTIDE1{[O=C(OCc1ccccc1)[*:2]].G.L.A}$$$$V2.0)", "values": [{"measurement": "stability in serum", "setting": "Stability in serum", "value": "relatively stable in serum"}, {"measurement": "period of observation without re-growth of tumors after treatment was cancelled", "setting": "EL-4 lymphoma cells; EL-4, after 4 Gy + Z-GLA-OH 13.8 mg/kg", "value": "over 3 months"}, {"measurement": "tumor volume", "setting": "EL-4 lymphoma cells; EL-4, irradiation 400 Rads + Z-GLA-OH 14 micro-l 50 mM i.p., day 22", "value": "6.00 mm^3 and 0.50 mm^3 (5×) and 4.00 mm^3"}, {"measurement": "tumor volume, mean", "setting": "EL-4 lymphoma cells; EL-4, irradiation + Z-GLA-OH, day 22", "value": 2.06, "unit": "mm^3"}, {"measurement": "tumor volume, mean", "setting": "EL-4 lymphoma cells; [1]", "value": 84.69, "unit": "mm^3"}, {"measurement": "tumor volume", "setting": "EL-4 lymphoma cells; [1]", "value": "108.00 mm^3 (3×) and 126.00 mm^3 and 75.00 mm^3 and 50.00 mm^3 and 40.00 mm^3 and 62.50 mm^3"}, {"measurement": "tumor volume, mean", "setting": "EL-4 lymphoma cells; [2]", "value": 49.94, "unit": "mm^3"}, {"measurement": "tumor volume", "setting": "EL-4 lymphoma cells; [2]", "value": "108.00 mm^3 (2×) and 13.50 mm^3 and 18.00 mm^3 and 24.00 mm^3 and 32.00 mm^3 and 48.00 mm^3 (2×)"}, {"measurement": "tumor volume, mean", "setting": "EL-4 lymphoma cells; [3]", "value": 20.75, "unit": "mm^3"}, {"measurement": "tumor volume", "setting": "EL-4 lymphoma cells; [3]", "value": "10.00 mm^3 and 0.50 mm^3 and 62.50 mm^3 and 24.00 mm^3 (2×) and 13.50 mm^3 (2×) and 18.00 mm^3"}, {"measurement": "tumor volume, mean", "setting": "EL-4 lymphoma cells; [4]", "value": 12.69, "unit": "mm^3"}, {"measurement": "tumor volume", "setting": "EL-4 lymphoma cells; [4]", "value": "8.00 mm^3 and 18.00 mm^3 and 12.00 mm^3 and 6.00 mm^3 (2×) and 27.00 mm^3 and 24.00 mm^3 and 0.50 mm^3"}, {"measurement": "tumor volume, mean", "setting": "EL-4 lymphoma cells; [5]", "value": 3.88, "unit": "mm^3"}, {"measurement": "tumor volume", "setting": "EL-4 lymphoma cells; [5]", "value": "0.50 mm^3 (3×) and 4.00 mm^3 (4×) and 13.50 mm^3"}, {"measurement": "tumor volume, mean", "setting": "EL-4 lymphoma cells; [6]", "value": 1.14, "unit": "mm^3"}, {"measurement": "tumor volume", "setting": "EL-4 lymphoma cells; [6]", "value": "0.50 mm^3 (4×) and 0.10 mm^3 and 2.00 mm^3 and 1.00 mm^3 and 4.00 mm^3"}, {"measurement": "tumor volume, mean", "setting": "EL-4 lymphoma cells; [7]", "value": 0.18, "unit": "mm^3"}, {"measurement": "tumor volume", "setting": "EL-4 lymphoma cells; [7]", "value": "0.10 mm^3 (4×) and 0.50 mm^3 (2×) and 0.00 mm^3 (2×)"}, {"measurement": "tumor volume, mean", "setting": "EL-4 lymphoma cells; [8]", "value": 0.07, "unit": "mm^3"}, {"measurement": "tumor volume", "setting": "EL-4 lymphoma cells; [8]", "value": "0.00 mm^3 (6×) and 0.10 mm^3 and 0.50 mm^3"}, {"measurement": "tumor volume, mean", "setting": "EL-4 lymphoma cells; [9]", "value": 0.01, "unit": "mm^3"}, {"measurement": "tumor volume", "setting": "EL-4 lymphoma cells; [9]", "value": "0.10 mm^3 and 0.00 mm^3 (7×)"}, {"measurement": "tumor volume, mean", "setting": "EL-4 lymphoma cells; [10]", "value": 0.01, "unit": "mm^3"}, {"measurement": "tumor volume", "setting": "EL-4 lymphoma cells; [10]", "value": 0.00, "unit": "mm^3"}, {"measurement": "tumor volume, mean", "setting": "EL-4 lymphoma cells; [11]", "value": 0.01, "unit": "mm^3"}, {"measurement": "tumor volume", "setting": "EL-4 lymphoma cells; [11]", "value": "0.10 mm^3 and 0.00 mm^3 (7×)"}, {"measurement": "tumor volume, mean", "setting": "EL-4 lymphoma cells; [12]", "value": 0.00, "unit": "mm^3"}, {"measurement": "tumor volume", "setting": "EL-4 lymphoma cells; [12]", "value": 0.00, "unit": "mm^3"}, {"measurement": "tumor response, summary of Table 3", "setting": "EL-4 lymphoma cells; EL-4, 400 Rads irradiation + 14 micro-l 50 mM Z-GLA-OH at each treatment (twice weekly)", "value": "complete rejection of established tumors"}, {"measurement": "mice with tumor regression (partial effects)", "setting": "EL-4 lymphoma cells; EL-4, Z-GLA-OH 3.5 mg/kg and lower doses + 3 Gy gamma-irradiation doses", "value": "2 out of 4"}, {"measurement": "mice with complete tumor rejection", "setting": "EL-4 lymphoma cells; EL-4, Z-GLA-OH 6.9 mg/kg + 3 Gy gamma-irradiation doses", "value": "3 out of 4"}, {"measurement": "mice with complete rejection", "setting": "EL-4 lymphoma cells; EL-4, gamma-irradiation doses of 1 Gy + Z-GLA-OH injection", "value": "1 out of 4"}, {"measurement": "mice with complete rejection", "setting": "EL-4 lymphoma cells; EL-4, gamma-irradiation doses of 2 Gy + Z-GLA-OH injection", "value": "2 out of 5"}, {"measurement": "tumor response", "setting": "EL-4 lymphoma cells; EL-4, gamma-irradiation doses of 3 Gy + Z-GLA-OH injection", "value": "complete regression"}, {"measurement": "tumor response", "setting": "EL-4 lymphoma cells; established EL-4 tumors, C57Bl/6 mice, 3-4 doses of 400 Rad (one dose/week) + Z-GLA-OH 13.8 mg/kg twice weekly, all mice tested", "value": "complete tumor regression"}]}]}
